Measured values reported in US11021444B2, “Antiviral compounds” (priority 2013, dated 2021).
Read-outs that look alike come from different tables or passages of the source.

Experiments:
RSV replicon = test: microbe, parasite or virus in culture; type: cell-based; conditions: read-out: EC50, the concentration of the drug required for reducing RSV replicon RNA by 50%
recombinant RSV complex = recombinant RSV complex (Human respiratory syncytial virus A, UniProt P28887); test: RSV Polymerase Inhibition Assay; type: biochemical
How it was run: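 10 nM recombinant RSV polymerase complex in Tris-HCl pH 7.5, 6 mM MgCl2 with RNA oligonucleotide template and radionucleotides, incubated 2 h at 30 °C with increasing inhibitor concentrations. Reaction stopped with EDTA; radiolabeled RNA product counted by scintillation.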

[1] = tested on: Respiratory Syncytial Virus (RSV) long strain; test: microbe, parasite or virus in culture; type: cell-based; conditions: Tables A and B list compounds by EC50 band
How it was run: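 HEp-2 cells infected with 100 TCID50 virus per well, compounds in duplicate, 9-point 1/3 dilutions from 100 μM or 1 μM, 1% DMSO. After 5 days at 37 °C, cell viability (CPE protection) read by CCK-8 absorbance at 450 nm, 630 nm background.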

[2] = Cytotoxicity Determination (CCK-8, without addition of virus); type: cell-based; conditions: human, 50% cytotoxicity concentration (CC50)
How it was run: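 HEp-2 cells were seeded at 1,500 cells/well one day before compound addition. Compounds were tested without virus in duplicate over 7 points from 100 μM in 1/2 steps, with 1% final DMSO, 5 days at 37 °C, 5% CO2. Viability was read by CCK-8 after 3-4 hours.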

[3] = human respiratory syncytial virus
[4] = human respiratory syncytial virus, HEp-2, 120 h, read-out: 50% effective concentration (EC50), HEp-2 cells infected with RSV long strain, 5 days, CCK-8 readout
[5] = human respiratory syncytial virus, 120 h, read-out: 50% effective concentration (EC50), HEp-2 cells infected with RSV long strain, 5 days, CCK-8 readout

recombinant RSV complex, sequence (P28887 whole entry): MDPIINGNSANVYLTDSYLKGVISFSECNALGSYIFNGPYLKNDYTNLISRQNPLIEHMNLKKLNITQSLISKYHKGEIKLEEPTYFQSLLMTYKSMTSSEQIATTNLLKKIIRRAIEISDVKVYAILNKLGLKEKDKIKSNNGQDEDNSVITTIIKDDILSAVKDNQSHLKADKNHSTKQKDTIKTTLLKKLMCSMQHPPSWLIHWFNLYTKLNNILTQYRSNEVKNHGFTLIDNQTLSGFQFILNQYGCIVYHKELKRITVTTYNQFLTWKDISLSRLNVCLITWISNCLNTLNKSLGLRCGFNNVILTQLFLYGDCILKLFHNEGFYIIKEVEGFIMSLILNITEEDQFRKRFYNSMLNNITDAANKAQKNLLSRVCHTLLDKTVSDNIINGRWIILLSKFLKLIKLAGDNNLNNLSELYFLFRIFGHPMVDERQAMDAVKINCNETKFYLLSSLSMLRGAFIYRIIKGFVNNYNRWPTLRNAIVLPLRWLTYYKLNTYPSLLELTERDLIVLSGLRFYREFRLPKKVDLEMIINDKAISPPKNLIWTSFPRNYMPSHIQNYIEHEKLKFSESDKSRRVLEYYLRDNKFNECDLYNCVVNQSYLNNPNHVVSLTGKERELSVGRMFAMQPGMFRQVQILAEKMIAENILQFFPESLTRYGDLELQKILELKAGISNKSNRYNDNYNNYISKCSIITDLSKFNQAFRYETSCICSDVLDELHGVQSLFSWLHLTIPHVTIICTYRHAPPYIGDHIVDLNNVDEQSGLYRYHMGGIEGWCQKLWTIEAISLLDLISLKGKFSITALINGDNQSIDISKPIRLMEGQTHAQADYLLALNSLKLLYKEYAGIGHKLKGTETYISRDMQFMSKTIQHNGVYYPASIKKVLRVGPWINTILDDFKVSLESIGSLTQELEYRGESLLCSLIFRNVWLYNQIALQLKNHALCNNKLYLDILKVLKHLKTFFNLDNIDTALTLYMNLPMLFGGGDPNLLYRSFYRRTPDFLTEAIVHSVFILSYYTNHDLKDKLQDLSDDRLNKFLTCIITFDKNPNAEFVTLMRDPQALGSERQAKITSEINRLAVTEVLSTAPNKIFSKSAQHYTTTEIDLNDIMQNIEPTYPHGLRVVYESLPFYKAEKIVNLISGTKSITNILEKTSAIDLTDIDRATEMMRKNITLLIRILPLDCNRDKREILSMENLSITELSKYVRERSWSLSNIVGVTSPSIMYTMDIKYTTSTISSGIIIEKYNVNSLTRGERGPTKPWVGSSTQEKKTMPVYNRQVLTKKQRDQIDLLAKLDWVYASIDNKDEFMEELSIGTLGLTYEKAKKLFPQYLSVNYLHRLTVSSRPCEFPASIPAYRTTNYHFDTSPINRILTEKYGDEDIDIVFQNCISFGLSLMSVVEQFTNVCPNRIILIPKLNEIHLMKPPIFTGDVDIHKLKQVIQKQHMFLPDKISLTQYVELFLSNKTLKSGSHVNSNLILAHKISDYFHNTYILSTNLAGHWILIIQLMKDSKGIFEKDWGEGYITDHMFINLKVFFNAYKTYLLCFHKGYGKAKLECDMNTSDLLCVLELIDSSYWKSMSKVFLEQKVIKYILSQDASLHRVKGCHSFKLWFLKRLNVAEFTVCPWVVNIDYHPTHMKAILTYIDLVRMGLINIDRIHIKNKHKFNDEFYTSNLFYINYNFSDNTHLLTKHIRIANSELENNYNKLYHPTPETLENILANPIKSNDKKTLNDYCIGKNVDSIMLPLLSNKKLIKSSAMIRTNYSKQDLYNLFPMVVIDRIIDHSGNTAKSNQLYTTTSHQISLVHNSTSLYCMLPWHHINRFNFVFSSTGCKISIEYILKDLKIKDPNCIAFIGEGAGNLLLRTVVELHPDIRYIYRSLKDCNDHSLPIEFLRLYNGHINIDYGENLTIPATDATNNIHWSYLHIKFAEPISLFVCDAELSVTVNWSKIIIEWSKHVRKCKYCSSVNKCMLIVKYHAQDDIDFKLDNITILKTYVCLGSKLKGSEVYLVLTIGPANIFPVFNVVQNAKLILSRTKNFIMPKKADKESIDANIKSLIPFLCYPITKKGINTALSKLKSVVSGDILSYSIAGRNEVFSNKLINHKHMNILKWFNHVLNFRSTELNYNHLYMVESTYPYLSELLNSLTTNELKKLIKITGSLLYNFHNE
recombinant RSV complex, sequence (P03421 whole entry, further chain): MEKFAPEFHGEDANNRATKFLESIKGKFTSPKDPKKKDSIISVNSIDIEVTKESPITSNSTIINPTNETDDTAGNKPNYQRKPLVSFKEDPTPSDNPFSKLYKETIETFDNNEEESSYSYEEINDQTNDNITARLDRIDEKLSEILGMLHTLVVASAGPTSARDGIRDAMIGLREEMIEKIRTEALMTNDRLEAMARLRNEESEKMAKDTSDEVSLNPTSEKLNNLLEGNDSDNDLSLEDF

SMILES | EC50 (RSV replicon; [3]) | IC50 (recombinant RSV complex) | EC50 [1, 4] | EC50 [1, 5] | CC50 at 5 days [2] | EC50 (RSV replicon; RSV replicon, 395 HeLa or APC126 cells, value given by membership in Table H / Table I) | IC50 (recombinant RSV complex; read-out: IC50 (compound concentration at which the enzyme-catalyzed rate was reduced by 50%), 10 nM recombinant RSV complex, 2 h at 30° C., Tables E, F and G list compounds by IC50 band) | EC50 ([1]; read-out: 50% effective concentration (EC50), HEp-2 cells infected with RSV long strain, 5 days, CCK-8 readout)
COc1cc(C(=O)NCC(O)(c2cc(C(C)(C)N)cc(-c3ccc(F)c(Cl)c3)n2)C(F)(F)F)ccc1OC1CC1 (single isomer, unassigned) [Compound 272] | < 1 µM | < 1 µM | < 1 µM |  |  |  |  | 
COc1ccc(C(=O)NCC(O)c2cccc(-c3csc4c(F)cccc34)n2)cc1OC (centres unmarked) [Compound 106] | < 1 µM |  |  | 1 to 50 µM | 10 to 100 µM |  |  | 
COc1cc(C(=O)NCC2(c3cccc(-c4csc5c(F)cccc45)n3)COC2)ccc1OCCO [Compound 163] | 1 to 50 µM |  |  |  | 10 to 100 µM |  |  | 
COc1cc(C(=O)NCC(O)(Cn2cccn2)c2ccc(OC)c(-c3ccc(F)c(Cl)c3)n2)ccc1OCCO (centres unmarked) [Compound 184] |  |  |  |  |  | < 1 µM | < 1 µM | < 1 µM
COc1cc(C(=O)NCC(O)(c2ccc(OC)c(-c3ccc(F)c(Cl)c3)n2)c2cnn(C)n2)ccc1OCCO (centres unmarked) [Compound 198] | < 1 µM | < 1 µM | < 1 µM |  |  |  |  | 
CC(C)(N)c1cc(-c2ccc(F)c(Cl)c2)nc(C(O)(CNC(=O)c2ccc3c(c2)OCCO3)C(F)(F)F)c1 (centres unmarked) [Compound 273] | < 1 µM | < 1 µM | < 1 µM |  |  |  |  | 
CC(C)(N)c1cc(-c2ccc(F)c(Cl)c2)nc(C(O)(CNC(=O)c2ccc3c(c2)OC(F)(F)O3)C(F)(F)F)c1 (centres unmarked) [Compound 275] | < 1 µM | < 1 µM | 1 to 50 µM |  |  |  |  | 
CC(C)(N)c1cc(-c2ccc(F)c(Cl)c2)nc(C(O)(CNC(=O)c2ccc(OC3CCNC3=O)c(Cl)c2)C(F)(F)F)c1 (centres unmarked) [Compound 281] | < 1 µM | < 1 µM | < 1 µM |  |  |  |  | 
CC(C)(N)c1cc(-c2ccc(F)c(Cl)c2)nc(C(O)(CNC(=O)c2ccc(OC3CC3)c(Cl)c2)C(F)(F)F)c1 (centres unmarked) [Compound 282] | < 1 µM | < 1 µM | < 1 µM |  |  |  |  | 
COc1cc(C(=O)NCC(O)(c2cc(C(C)(C)N)cc(-c3ccc(F)c(Cl)c3)n2)C(F)(F)F)ccc1OC1CC1 (centres unmarked) [Compound 314] | < 1 µM | < 1 µM | < 1 µM |  |  |  |  | 
COc1cc(C(=O)NCC(O)(c2cc(C(C)(C)N)cc(-c3ccc(F)c(Cl)c3)n2)C(F)(F)F)ccc1OC1CC(F)C1 (centres unmarked) [Compound 323] | < 1 µM | < 1 µM | < 1 µM |  |  |  |  | 
COc1cc(C(=O)NCC(O)(c2cc(C(C)(C)N)cc(-c3ccc(F)c(Cl)c3)n2)C(F)(F)F)ccc1OC1CC1(F)F (centres unmarked) [Compound 324] | < 1 µM | < 1 µM | < 1 µM |  |  |  |  | 
COc1cc(C(=O)NCC(O)(c2cc(C(C)(C)N)cc(-c3ccc(F)c(Cl)c3)n2)C(F)(F)F)ccc1OCC(F)(F)F (centres unmarked) [Compound 325] | < 1 µM | < 1 µM | < 1 µM |  |  |  |  | 
COc1cc(C(=O)NCC(O)(c2ccc(OC)c(-c3ccc(F)c(Cl)c3)n2)C(F)(F)F)ccc1OC[C@@H](C)O (some centres unmarked) [Compound 336] | < 1 µM |  | < 1 µM |  | 10 to 100 µM |  |  | 
COc1cc(C(=O)NCC(O)(c2ccc(OC)c(-c3ccc(F)c(Cl)c3)n2)C(F)(F)F)ccc1OC(C)C(N)=O (centres unmarked) [Compound 338] | < 1 µM |  | < 1 µM |  | 10 to 100 µM |  |  | 
COc1cc(C(=O)NCC(O)(c2cc(C(C)(C)O)cc(-c3ccc(F)c(Cl)c3)n2)C(F)(F)F)ccc1OC1CC1 (centres unmarked) [Compound 386] | < 1 µM | < 1 µM |  |  | 10 to 100 µM |  |  | 
CNC(C)(C)c1cc(-c2ccc(F)c(Cl)c2)nc(C(O)(CNC(=O)c2ccc(OC3CC3)c(OC)c2)C(F)(F)F)c1 (centres unmarked) [Compound 394] | < 1 µM | < 1 µM | < 1 µM |  |  |  |  | 
CCOc1ccc(C(=O)NCC(O)(c2cc3c(c(-c4ccc(F)c(Cl)c4)n2)OCC3(C)N)C(F)(F)F)cc1Cl (centres unmarked) [Compound 494] | < 1 µM | < 1 µM | < 1 µM |  |  |  |  | 

SMILES | EC50 (RSV replicon; [3]) | IC50 (recombinant RSV complex) | EC50 [1, 4] | EC50 [1, 5] | CC50 at 5 days [2] | EC50 (RSV replicon; RSV replicon, 395 HeLa or APC126 cells, value given by membership in Table H / Table I) | IC50 (recombinant RSV complex; read-out: IC50 (compound concentration at which the enzyme-catalyzed rate was reduced by 50%), 10 nM recombinant RSV complex, 2 h at 30° C., Tables E, F and G list compounds by IC50 band) | EC50 ([1]; read-out: 50% effective concentration (EC50), HEp-2 cells infected with RSV long strain, 5 days, CCK-8 readout)
COc1cc(C(=O)NCC(O)(c2cc(C(C)(C)NC(=O)CN)cc(-c3ccc(F)c(Cl)c3)n2)C(F)(F)F)ccc1OC1CC1 (centres unmarked) [Compound 497] | < 1 µM | < 1 µM | < 1 µM |  |  |  |  | 
COc1cc(C(=O)NCC(O)(c2cc3c(c(-c4ccc(F)c(Cl)c4)n2)OCC3(C)NCCN)C(F)(F)F)ccc1OC1CC1 (centres unmarked) [Compound 499] | < 1 µM | < 1 µM | < 1 µM |  |  |  |  | 
COCCNC(C)(C)c1cc(-c2ccc(F)c(Cl)c2)nc(C(O)(CNC(=O)c2ccc(OC3CC3)c(OC)c2)C(F)(F)F)c1 (centres unmarked) [Compound 505] | < 1 µM | < 1 µM | < 1 µM |  |  |  |  | 
COc1cc(C(=O)NCC(O)(c2cc(C(C)(C)NCCN)cc(-c3ccc(F)c(Cl)c3)n2)C(F)(F)F)ccc1OC1CC1 (centres unmarked) [Compound 508] | < 1 µM | < 1 µM | < 1 µM |  |  |  |  | 
COc1cc(C(=O)NCC(O)(c2cc(C(C)(C)N)cc(-c3c[nH]c4c(F)cccc34)n2)C(F)(F)F)ccc1OC1CC1 (centres unmarked) [Compound 519] | < 1 µM | < 1 µM | < 1 µM |  |  |  |  | 
COc1cc(C(=O)NCC(O)(c2cc(C(C)(C)N)cc(-c3ccc(Cl)cc3)n2)C(F)(F)F)ccc1OC1CC1 (centres unmarked) [Compound 520] | < 1 µM | < 1 µM |  | < 1 µM |  |  |  | 
COc1cc(C(=O)NCC(O)(c2cc(C(C)(C)N)cc(-c3ccc(F)c(C(F)(F)F)c3)n2)C(F)(F)F)ccc1OC1CC1 (centres unmarked) [Compound 521] | < 1 µM | < 1 µM | < 1 µM |  |  |  |  | 
COc1cc(C(=O)NCC(O)(c2cc(C(C)(C)N)cc(-c3ccc(F)c(Cl)c3)n2)C(F)(F)F)ccc1OCC(=O)O (centres unmarked) [Compound 578] | < 1 µM | < 1 µM |  |  | 10 to 100 µM |  |  | 
COc1cc(C(=O)NC[C@](O)(c2cc3c(c(-c4ccc(C#N)cc4)n2)OC[C@]3(C)N)C(F)(F)F)ccc1OCCO [Compound 604d] | < 1 µM | < 1 µM | < 1 µM |  |  |  |  | 
COc1cc(C(=O)NCC(O)(c2cc(C(C)(C)N)cc(-c3ccc(F)cc3)n2)C(F)(F)F)ccc1OC/C(N)=N/O (centres unmarked) [Compound 636] | < 1 µM | < 1 µM |  |  |  |  |  | 
COc1cc(C(=O)NCC(F)(c2cc(C(C)(C)N)cc(-c3ccc(F)c(Cl)c3)n2)C(F)(F)F)ccc1OC1CC1 (centres unmarked) [Compound 641] | < 1 µM | < 1 µM |  |  |  |  |  | 
COc1cc(C(=O)NCC(O)(c2cc3c(c(-c4c[nH]c5c(F)cccc45)n2)OCC3(C)N)C(F)(F)F)ccc1OCCO (centres unmarked) [Compound 647] | < 1 µM | < 1 µM |  |  |  |  |  | 
COc1cc(C(=O)NCC(O)(c2cc3c(c(-c4ccc(Br)cc4)n2)OCC3(C)N)C(F)(F)F)ccc1OCCO (centres unmarked) [Compound 651] | < 1 µM | < 1 µM |  |  |  |  |  | 
COc1cc(-c2cc(C(C)(C)N)cc(C(O)(CNC(=O)c3ccc(OCCO)c(OC)c3)C(F)(F)F)n2)ccn1 (centres unmarked) [Compound 659] | < 1 µM | < 10 µM |  |  |  |  |  | 
COc1cc(C(=O)NCC(O)(c2cc(C(C)(C)N)cc(-c3ccc(F)c(Cl)c3)n2)C2CC2)ccc1OC1CC1 (centres unmarked) [Compound 667] | < 1 µM | < 1 µM | < 1 µM |  |  |  |  | 
COc1cc(C(=O)NCC(O)(c2cc3c(c(-c4ccc(CO)cc4)n2)OCC3(C)N)C(F)(F)F)ccc1OCCO (centres unmarked) [Compound 672] | < 1 µM | < 10 µM |  |  | > 100 µM |  |  | 
COc1cc(C(=O)NCC(O)(c2cc3c(c(-c4ccc(C(=O)O)cc4)n2)OCC3(C)N)C(F)(F)F)ccc1OCCO (centres unmarked) [Compound 675] | < 1 µM |  |  |  | > 100 µM |  |  | 
